Measured values taken from patent US7700611B2, “Synthesis and crystalline forms of NPY5 antagonist” (Merck Sharp & Dohme Corp., priority 2005, dated 2010).

Experiment: Thermodynamic stability of crystalline polymorphs (enantiotropic transition, storage)
Format: physicochemical
Conditions: for enantiotropic transition temperature between Form A and Form C: free base polymorphs; for thermodynamic stability of the crystalline form: relative to other crystalline forms of Compound I, temperature range as stated; for solid form stability at room temperature / on storage: room temperature (22° C.)

Compound | enantiotropic transition temperature between Form A and Form C | thermodynamic stability of the crystalline form | solid form stability at room temperature / on storage
O=C1O[C@]2(CC[C@H](C(=O)Nc3ccn(-c4ccccc4F)n3)CC2)c2cnccc21 [Form A, trans-N-[1-(2-fluorophenyl)-3-pyrazolyl]-3-oxospiro[6-azaisobenzofuran-1(3H),1′-cyclohexane]-4′-carboxamide] | approximately 81 °C | most thermodynamically stable crystalline form of compound (I) above 81 °C | instability
O=C1O[C@]2(CC[C@H](C(=O)Nc3ccn(-c4ccccc4F)n3)CC2)c2cnccc21 [Form C, trans-N-[1-(2-fluorophenyl)-3-pyrazolyl]-3-oxosiro[6-azaisobenzofuran-1(3H),1′-cyclohexane]-4′-carboxamide] | approximately 81 °C | most thermodynamically stable crystalline form of Compound I below 81 °C | not subject to transforming to another crystal form
